Results on six compounds are retold here after patent US11059815B2, “Synthesis of small molecule histone deacetylase 6 degraders, compounds formed thereby, and pharmaceutical compositions containing them” (Wisconsin Alumni Research Foundation, priority 2018, dated 2021).

This assay deals with T1, HDAC6 (Homo sapiens, UniProt Q9UBN7).
T1 construct: endogenous in cells; host or cells: MM1S (ATCC CRL-2974)
T1 sequence (Q9UBN7 1-1215): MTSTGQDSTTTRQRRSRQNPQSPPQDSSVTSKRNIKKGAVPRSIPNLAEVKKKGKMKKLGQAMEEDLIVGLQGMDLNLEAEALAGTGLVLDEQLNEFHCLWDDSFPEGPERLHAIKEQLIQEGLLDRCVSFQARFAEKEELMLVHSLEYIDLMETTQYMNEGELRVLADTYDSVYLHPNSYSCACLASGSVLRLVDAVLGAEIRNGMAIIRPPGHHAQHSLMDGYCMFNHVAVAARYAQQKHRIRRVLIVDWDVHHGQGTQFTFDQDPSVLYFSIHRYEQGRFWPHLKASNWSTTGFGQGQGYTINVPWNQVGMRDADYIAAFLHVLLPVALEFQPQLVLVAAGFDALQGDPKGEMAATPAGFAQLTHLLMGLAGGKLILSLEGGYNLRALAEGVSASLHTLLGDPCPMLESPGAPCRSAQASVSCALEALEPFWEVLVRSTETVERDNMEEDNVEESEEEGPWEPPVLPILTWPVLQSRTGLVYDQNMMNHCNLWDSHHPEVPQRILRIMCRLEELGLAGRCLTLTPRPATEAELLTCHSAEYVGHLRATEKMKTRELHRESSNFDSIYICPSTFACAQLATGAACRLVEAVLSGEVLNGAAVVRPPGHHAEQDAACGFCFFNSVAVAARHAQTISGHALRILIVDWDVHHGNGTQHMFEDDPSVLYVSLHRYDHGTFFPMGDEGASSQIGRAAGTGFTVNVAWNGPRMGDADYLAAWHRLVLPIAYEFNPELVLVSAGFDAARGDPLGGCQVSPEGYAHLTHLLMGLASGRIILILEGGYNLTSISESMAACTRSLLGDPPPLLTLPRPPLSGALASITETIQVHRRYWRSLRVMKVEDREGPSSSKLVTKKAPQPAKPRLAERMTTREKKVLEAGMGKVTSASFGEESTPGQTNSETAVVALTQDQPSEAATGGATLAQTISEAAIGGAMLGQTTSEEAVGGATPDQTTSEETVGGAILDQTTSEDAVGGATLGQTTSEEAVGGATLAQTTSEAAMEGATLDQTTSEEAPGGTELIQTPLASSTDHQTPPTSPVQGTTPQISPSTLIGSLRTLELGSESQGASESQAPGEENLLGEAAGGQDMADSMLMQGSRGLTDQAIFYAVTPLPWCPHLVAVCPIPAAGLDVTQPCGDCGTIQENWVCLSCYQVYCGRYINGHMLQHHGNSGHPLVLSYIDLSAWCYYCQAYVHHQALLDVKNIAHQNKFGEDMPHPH
The experiment in a line: In-cell ELISA of HDAC6 protein level in MM1S cells. Conditions: 6 h; for inhibition at 0.01 µM: 10 nM, n=3, read-out: Degradation (%) 10 nM; for inhibition at 0.01 µM / inhibition at 0.1 µM: 100% minus mean (± SD) relative HDAC6 expression; for inhibition at 0.1 µM: 100 nM, n=3, read-out: Degradation (%) 100 nM. Format: cell-based. As to the method:
FIG. 9 is a histogram depicting the results of screening of compounds for HDAC6 degradation activity by in-cell ELISA. MM1S cells were treated with compounds at 100 nM (blue bars) or 10 nM (red bars) for 6 h. Data was normalized to vehicle (DMSO)-treated group and the bar graph represents as mean of relative HDAC6 protein level (n=3) with ±SD as error bar. Statistical significance was analyzed by one-way ANOVA. Not significant (ns) P>0.05, *P≤0.05, **P≤0.01, ***P≤0.001, ****P≤0.0001.
FIG. 11 is a graph depicting dose response of selected degrader candidates. MM1S cells were treated for 6 h and analyzed by in-cell ELISA. Data was normalized to vehicle (DMSO)-treated group and dot plot represented as mean relative expression (n=3) with ±SD as error bar. Nonlinear fitting of inhibitor concentration vs. response (three parameters) was generated by GraphPad Prism with R2 from 0.97 to 0.99.
FIG. 15 is a histogram depicting relative HDAC6 expression as a function of linker length for compounds 3a through 3k as described in the Examples section, Part 2. Human MM1S cells were treated with 100 nM degraders for 6 hours and analyzed by in-cell ELISA assay.
FIG. 17 is a dose-response curve for degraders 3j (n=1), 3k (n=12) and 2, at concentrations from 1 nM to 300 nM for 4 h in MM1S. See the Examples, Part 2.
To screen the new series of degraders, an in-cell ELISA assay was developed and validated. The compounds were treated at 100 nM and 10 nM in MM1S cells for 6 h. Resulting cells were then fixed and analyzed by in-cell ELISA. […] Degraders including 1 at 100 nM degraded 73.5% to 85.0% of HDAC6 with minor difference. At 10 nM concentration of compounds, obvious structure-activity-relationship (SAR) was observed. […] For example, 12d, 12h, 12i, 12o and 12p all achieved about 70% degradation. Among the C4-linked series, 12d with medium length linker (5+1) achieved most degradation in sub-series 12a-e (m=1). […] Among C5-linked series, the potency of sub-series 12l-p (m=1) increased with the linker length. […] It appeared that both the distance and linking positions contributed to the degradation efficiency. The rigid triazole ring in the middle of the linker likely modulated the plasticity of degrader-bridged ternary complex.
The amount of cellular HDAC6 was measured in response to concentrations of compounds from 0.1 nM to 1 μM. […] The new degraders had single-digit nanomolar DC50, which was about 3 to 5 fold of improvement from 9.12 nM of degrader 1. […] As discussed above, most PROTACs were designed to avoid degrading other proteins except the targeted POIs. However, in these studies, it was hypothesized that HDAC6 degraders with IKZF degradation will have enhanced anti-proliferation effect MM1S cells.
MM1S cells were harvested and plated with 5×10^5 cells in 100 μL media per well 96-wells plate. After overnight seeding, 25 μL media containing 5× dosing concentration of the compounds or vehicle was added to each well. After 6-hour treatment at 37° C. in a humidified 5% CO2 atmosphere, cells were fixed by adding 125 μL 8% formaldehyde in TBS buffer (137 mM NaCl, 25 mM Tris, 2.7 mM potassium chloride, pH 7.6) and incubated at room temperature (RT) for 15 minutes. Removal of fixing solution was followed by once rinse and twice washes with TBS-T washing buffer (137 mM NaCl, 20 mM Tris, 0.1% Tween, pH 7.6). Cells were then permeabilized by adding 100 μL 0.1% Triton-X in TBS and incubated at RT for 15 minutes. Removal of permeabilizing solution was followed by once rinse and once wash with TBS-T. Cellular endogenous peroxidases were quenched by adding 100 μL 1% H2O2 in TBS and incubation at RT for 20 minutes. Removal of quenching solution was followed by once rinse and once wash with TBS-T. Non-specific binding sites were blocked by adding […] 5% BSA in TBS-T (with 0.02% NaN3) and incubation at 4° C. overnight. […]

Turning to `CCCCN(Cc1ccc(C(=O)NO)cc1)C(=O)Nc1ccc(OCCCCn2cc(CCNc3cccc4c3C(=O)N(C3CCC(=O)NC3=O)C4=O)nn2)cc1` (centres unmarked) [Compound 12h, 4-((1-butyl-3-(4-(4-(4-(2-((2-(2,6-dioxopiperidin-3-yl)-1,3-dioxoisoindolin-4-yl)amino)ethyl)-1H-1,2,3-triazol-1-yl)butoxy)phenyl)ureido)methyl)-N-hydroxybenzamide], for the setting “MM1.S”, the inhibition at 0.01 µM is about 70% and the inhibition at 0.1 µM is 79.2 ± 0.9%.
As to `CCCCN(Cc1ccc(C(=O)NO)cc1)C(=O)Nc1ccc(OCCn2cc(CCCNc3cccc4c3C(=O)N(C3CCC(=O)NC3=O)C4=O)nn2)cc1` (centres unmarked) [Compound 12i, 4-((1-butyl-3-(4-(2-(4-(3-((2-(2,6-dioxopiperidin-3-yl)-1,3-dioxoisoindolin-4-yl)amino)propyl)-1H-1,2,3-triazol-1-yl)ethoxy)phenyl)ureido)methyl)-N-hydroxybenzamide], the DC50 (0.1 nM to 1 μM, nonlinear fit, ± SD) was found to be 2.54 ± 0.32 nM. Moreover, the Dmax (MM1.S, 0.1 nM to 1 μM, nonlinear fit, ± SD, read-out: Dmax (Vehicle %)) is 86.3 ± 1.67%. Where the note is “MM1.S”, the inhibition at 0.01 µM is about 70% and the inhibition at 0.1 µM came out at 83.1 ± 1%.
Consider `CCCCN(Cc1ccc(C(=O)NO)cc1)C(=O)Nc1ccc(OCCn2cc(CCCNc3ccc4c(c3)C(=O)N(C3CCC(=O)NC3=O)C4=O)nn2)cc1` (centres unmarked) [Compound 12q, 4-((1-butyl-3-(4-(2-(4-(3-((2-(2,6-dioxopiperidin-3-yl)-1,3-dioxoisoindolin-5-yl)amino)propyl)-1H-1,2,3-triazol-1-yl)ethoxy)phenyl)ureido)methyl)-N-hydroxybenzamide], for which, where the note is “MM1.S”, the inhibition at 0.01 µM turned out to be 47.2 ± 4.8% and the inhibition at 0.1 µM was found to be 80.4 ± 0.3%.
Consider `CCCCN(Cc1ccc(C(=O)NO)cc1)C(=O)Nc1ccc(OCCCCn2cc(CNc3cccc4c3C(=O)N(C3CCC(=O)NC3=O)C4=O)nn2)cc1` (centres unmarked) [Compound 12c, 4-((1-butyl-3-(4-(4-(4-(((2-(2,6-dioxopiperidin-3-yl)-1,3-dioxoisoindolin-4-yl)amino)methyl)-1H-1,2,3-triazol-1-yl)butoxy)phenyl)ureido)methyl)-N-hydroxybenzamide], for which, under “MM1.S”, the inhibition at 0.01 µM came out at 64.3 ± 3.2% and the inhibition at 0.1 µM is 85 ± 1.2%.
Take `CCCCN(Cc1ccc(C(=O)NO)cc1)C(=O)Nc1ccc(OCCn2cc(CCNc3cccc4c3C(=O)N(C3CCC(=O)NC3=O)C4=O)nn2)cc1` (centres unmarked) [Compound 12f, 4-((1-butyl-3-(4-(2-(4-(2-((2-(2,6-dioxopiperidin-3-yl)-1,3-dioxoisoindolin-4-yl)amino)ethyl)-1H-1,2,3-triazol-1-yl)ethoxy)phenyl)ureido)methyl)-N-hydroxybenzamide]: under “MM1.S”, the inhibition at 0.01 µM came to 49.3 ± 0.6% and the inhibition at 0.1 µM came out at 81.8 ± 0.9%.
In the case of `CCCCN(Cc1ccc(C(=O)NO)cc1)C(=O)Nc1ccc(OCCn2cc(CNc3ccc4c(c3)C(=O)N(C3CCC(=O)NC3=O)C4=O)nn2)cc1` (centres unmarked) [Compound 12l, 4-((1-butyl-3-(4-(2-(4-(((2-(2,6-dioxopiperidin-3-yl)-1,3-dioxoisoindolin-5-yl)amino)methyl)-1H-1,2,3-triazol-1-yl)ethoxy)phenyl)ureido)methyl)-N-hydroxybenzamide], under “MM1.S”, the inhibition at 0.01 µM was 57.1 ± 1.4% and the inhibition at 0.1 µM was 81.4 ± 0.6%.
